Laboratory results as given in PMC11239673, “Structural basis for the bi-specificity of USP25 and USP28 inhibitors” (EMBO Reports, 2024).
pIC50: −log10 of the molar value. Values joined by “and” are separate entries in the source; they are usually repeats but may differ in a detail not shown here. Equal entries are not always repeated. Where two headings read alike, the source gives them in different places.

Columns and labels:
[1] = molecular target: T1, USP28Δtip D265S (Homo sapiens, UniProt Q96RU2, D265S/INS458SGSG); assay: Ub-Rho110 dose–response assay, USP28Δtip D265S; assay type: biochemical; settings: for pIC50: USP28 - D265S
T1 sequence (Q96RU2 with tags, fused parts or gaps D265S/INS458SGSG): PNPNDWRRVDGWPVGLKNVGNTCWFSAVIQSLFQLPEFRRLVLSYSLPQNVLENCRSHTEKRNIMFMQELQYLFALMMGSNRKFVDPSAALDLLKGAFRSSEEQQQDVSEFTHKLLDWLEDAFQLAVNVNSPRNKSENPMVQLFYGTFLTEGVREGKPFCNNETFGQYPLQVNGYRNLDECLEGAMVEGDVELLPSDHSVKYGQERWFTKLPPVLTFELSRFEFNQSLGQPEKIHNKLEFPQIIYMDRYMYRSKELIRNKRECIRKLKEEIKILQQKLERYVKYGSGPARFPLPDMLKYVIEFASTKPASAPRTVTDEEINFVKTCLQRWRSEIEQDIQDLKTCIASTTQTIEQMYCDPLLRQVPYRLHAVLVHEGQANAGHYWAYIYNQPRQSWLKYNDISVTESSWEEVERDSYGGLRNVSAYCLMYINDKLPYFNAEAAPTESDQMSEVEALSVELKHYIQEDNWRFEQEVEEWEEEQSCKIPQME

[2] = molecular target: T2, USP25Δtip H268A (Homo sapiens, UniProt Q9UHP3, DEL465-537/H268A/INS464GSGSGS); assay: Ub-Rho110 dose–response assay, USP25Δtip H268A; assay type: biochemical
T2 construct: 6xHis or thioredoxin-6xHis (N, cleaved yes); made in house; host or cells: E. coli BL21star (DE3)
T2 sequence (Q9UHP3 with tags, fused parts or gaps H268A/DEL465-477/P478G/DEL482-535/A536G/P537S limits assumed): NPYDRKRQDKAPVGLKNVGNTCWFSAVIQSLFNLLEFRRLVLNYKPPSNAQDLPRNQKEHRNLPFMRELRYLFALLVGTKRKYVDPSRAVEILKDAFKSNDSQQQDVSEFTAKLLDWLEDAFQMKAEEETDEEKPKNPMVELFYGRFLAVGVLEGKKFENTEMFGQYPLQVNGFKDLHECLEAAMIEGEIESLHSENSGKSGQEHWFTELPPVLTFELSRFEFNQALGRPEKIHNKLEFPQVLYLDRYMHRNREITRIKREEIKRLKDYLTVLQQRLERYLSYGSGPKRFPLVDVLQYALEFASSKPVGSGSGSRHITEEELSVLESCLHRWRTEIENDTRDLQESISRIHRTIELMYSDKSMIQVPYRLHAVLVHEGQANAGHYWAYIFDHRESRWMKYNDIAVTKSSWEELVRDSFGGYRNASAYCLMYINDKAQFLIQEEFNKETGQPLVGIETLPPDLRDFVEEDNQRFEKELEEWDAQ

[3] = molecular target: T3, USP25fl (Homo sapiens, UniProt Q9UHP3); assay: SEC-MALS analysis of the oligomeric state of USP25fl after inhibitor incubation; settings: for MW [kDa]: SEC-MALS molar mass of USP25-fl
T3 sequence (Q9UHP3 1-1055): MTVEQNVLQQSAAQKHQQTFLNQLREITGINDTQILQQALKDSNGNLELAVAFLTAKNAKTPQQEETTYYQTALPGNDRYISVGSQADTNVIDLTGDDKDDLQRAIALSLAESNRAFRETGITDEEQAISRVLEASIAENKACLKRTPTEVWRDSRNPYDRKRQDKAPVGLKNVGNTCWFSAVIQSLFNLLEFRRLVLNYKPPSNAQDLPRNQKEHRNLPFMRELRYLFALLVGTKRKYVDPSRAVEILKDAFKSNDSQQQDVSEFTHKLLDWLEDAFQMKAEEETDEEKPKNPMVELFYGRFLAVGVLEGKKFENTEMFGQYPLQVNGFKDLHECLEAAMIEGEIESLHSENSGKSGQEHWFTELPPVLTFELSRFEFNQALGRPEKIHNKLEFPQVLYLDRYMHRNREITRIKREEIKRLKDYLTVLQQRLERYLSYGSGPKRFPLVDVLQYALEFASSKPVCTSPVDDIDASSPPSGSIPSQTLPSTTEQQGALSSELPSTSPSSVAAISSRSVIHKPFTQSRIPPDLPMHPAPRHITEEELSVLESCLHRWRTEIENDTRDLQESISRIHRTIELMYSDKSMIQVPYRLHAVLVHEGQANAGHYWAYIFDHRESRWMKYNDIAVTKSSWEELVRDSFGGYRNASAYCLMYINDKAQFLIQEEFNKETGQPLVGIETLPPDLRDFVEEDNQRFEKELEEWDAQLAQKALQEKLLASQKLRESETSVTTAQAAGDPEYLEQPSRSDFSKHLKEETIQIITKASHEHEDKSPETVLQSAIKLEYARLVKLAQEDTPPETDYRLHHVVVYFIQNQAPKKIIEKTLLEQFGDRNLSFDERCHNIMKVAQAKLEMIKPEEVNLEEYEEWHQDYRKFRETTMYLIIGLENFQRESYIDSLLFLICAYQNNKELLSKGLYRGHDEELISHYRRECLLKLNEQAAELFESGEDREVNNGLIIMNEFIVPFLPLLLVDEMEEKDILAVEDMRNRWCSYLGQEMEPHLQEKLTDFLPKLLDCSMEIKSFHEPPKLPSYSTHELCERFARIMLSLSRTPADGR

[4] = read-out: relative inhibition [%] - USP28 - D265S
[5] = 20 µM USP25, 60 µM inhibitor, mean of experiments
[6] = 20 µM USP25, 60 µM inhibitor, single experiments

## Cc1ccc2c(N)c(C(=O)NC3CCc4cc(N5CC6CCC(C5)N6)ccc4C3)sc2n1 (stereo not drawn) [FT206]
[1]
  t-test vs. USP28 WT control - D265S: 4.502E-03
[1]; mean of replicates, read-out: IC50, mean and SD
  pIC50: 6.51
[1]; single replicates, read-out: IC50 of each replicate curve (unlabelled line above mean and SD)
  pIC50: 6.54 and 6.57 and 6.55 and 6.36
[1]; [4]
  inhibition at 11.11 µM: 99.7%
  inhibition at 33.33 µM: 100%
  inhibition at 100 µM: 101%
  inhibition at […]: 97.8% and 94.4% and 33.5% and 30.9%
[2]; p value, inhibitor IC50 on USP25 H268A compared with USP25 WT
  t-test vs. USP25 WT control - H268A: 1.749E-05
[2]; read-out: relative inhibition [%] - USP25 - H268A
  inhibition at 11.11 µM: 29.7%
[2]; read-out: relative inhibition [%] - USP25 - H268A, inhibitor 33.33 µM, single replicates
  inhibition at 33.33 µM: 55.5%
[2]; read-out: relative inhibition [%] - USP25 - H268A, inhibitor 100.00 µM, single replicates
  inhibition at 100 µM: 78.2%
[3]; 20 µM USP25, 60 µM inhibitor, mean of 4 experiments
  avg. Mol mass (10.5-14.5 ml), mean: 298.950
[3]; [5]
  dimer (fraction), mean: 0.777
  tetramer (fraction), mean: 0.223
[3]; [6]
  avg. Mol mass (10.5-14.5 ml): 298.000 and 299.300 and 295.500 and 303.000
  dimer (fraction): 0.781 and 0.775 and 0.791 and 0.760
  tetramer (fraction): 0.219 and 0.225 and 0.209 and 0.240
[3]; 20 µM USP25fl, 60 µM inhibitor, 45 min, average of ≥3 experiments ± SD, DMSO control 26.2 ± 1.5
  % dimer: 77.7 ± 1.1%
[3]; 20 µM USP25fl, 60 µM inhibitor, 45 min, average of ≥3 experiments ± SD, DMSO control 73.8 ± 1.5
  % tetramer: 22.3 ± 1.1%
[3]; 20 µM USP25fl, 60 µM inhibitor, 45 min, average of ≥3 experiments ± SD, DMSO control 424.7 ± 3.8
  Ø Mw: 299.0 ± 2.7 kDa
[3]; 10 µM USP25-fl + 5 µM inhibitor, elution volume V [mL] in the cell to the left
  MW [kDa]: 638.16 kDa and 634.82 kDa and 630.15 kDa and 628.44 kDa
[3]; 10 µM USP25-fl + 10 µM inhibitor, elution volume V [mL] in the cell to the left
  MW [kDa]: 647.07 kDa and 645.88 kDa and 640.88 kDa and 638.88 kDa
[3]; 10 µM USP25-fl + 20 µM inhibitor, elution volume V [mL] in the cell to the left
  MW [kDa]: 747.51 kDa and 739.67 kDa and 732.41 kDa and 732.02 kDa
[3]; SEC-MALS trace, 10 µM USP25-fl + 20 µM inhibitor, elution volume V [mL] in the cell to the left
  dRI: 3.84E-07 and 3.46E-07 and 3.10E-07 and 2.78E-07
